Laboratory results: patent publication US20260083865A1, “PROSTATE SPECIFIC MEMBRANE ANTIGEN (PSMA) LIGANDS AND USE THEREOF” (priority 2022, published 2026)
Where two headings read alike, the source gives them in different places. Numbered stars: 1 amine (or outer) side, 2 acyl side, 3 side chain; on linkers, the order of the positions; unused ones are H or OH. Bridge positions count the residues as written; N and C are the ends. Square brackets hold non-standard residues; d marks the D form. Peptide text beside a SMILES is read from it. * marks the point of attachment. DOTA = O=C(O)CN1CCN(CC(=O)O)CCN(CC(=O)*)CCN(CC(=O)O)CC1; Phe(4-Cl) = N[C@@H](Cc1ccc(Cl)cc1)C(=O)O; Ethylenediamine = C(CN[*:2])N[*:1]; NMeF = CN[C@@H](Cc1ccccc1)C(=O)O; X1 = O=C(CC1CCN([*:1])CC1)[*:2]; Cit = NC(=O)NCCC[C@H](N)C(=O)O; Tle = CC(C)(C)[C@H](N)C(=O)O; 4Amb = NCc1ccc(C(=O)O)cc1; Aib = CC(C)(N)C(=O)O; CO = O=C([*:1])[*:2]; GABA = NCCCC(=O)O; NHBu = CCCCN*

Tests used:
[1] = biological target: T1, PSMA-expressing C4-2 cells (Homo sapiens, UniProt Q04609); assay: FACS binding assay (competition with 50 nM PSM-0183); settings: read-out: pIC50 [C4-2] CAT (converted)
T1 construct: PSMA-expressing C4-2 cells (ATCC, Cat. No. CRL-3314) were cultured in RPMI-1640; host or cells: C4-2 cells
Summary of the method: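 Competition format: fluorescent tracer PSM-0183 (50 nM) displaced from PSMA on C4-2 cells by a test compound titration over 1 h at 4 °C. Bound tracer was quantified as flow-cytometric AF488 median fluorescence after washing. Four-parameter logistic fits of MFI data gave IC50 and pIC50.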

[2] = biological target: T2, Fc-fusion protein of human PSMA (hPSMA-Fc) (Homo sapiens, UniProt Q04609); assay: Surface plasmon resonance assay (Biacore T200, single cycle kinetic); type: binding; settings: hPSMA-Fc, 25° C., read-out: pKD CAT (converted)
T2 construct: purchased Acro Biosystems PSA-H5264
Summary of the method: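 KD, expressed as pKD, came from 1:1 Langmuir fits of reference- and buffer-blank-subtracted SPR data. The runs were single-cycle kinetics at 25° C in HBST/0.1% DMSO over human PSMA-Fc, captured to ~1000 RU on a peptide-coated CM5 surface and regenerated with 10 mM glycine pH 1.5.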

[3] = FACS binding, PSMA-expressing C4-2 cells, pIC50 category
[4] = pIC50 category of FACS binding, C4-2 cells
[5] = pKD category for PSMA SPR activity assay

T1 sequence (Q04609 whole entry): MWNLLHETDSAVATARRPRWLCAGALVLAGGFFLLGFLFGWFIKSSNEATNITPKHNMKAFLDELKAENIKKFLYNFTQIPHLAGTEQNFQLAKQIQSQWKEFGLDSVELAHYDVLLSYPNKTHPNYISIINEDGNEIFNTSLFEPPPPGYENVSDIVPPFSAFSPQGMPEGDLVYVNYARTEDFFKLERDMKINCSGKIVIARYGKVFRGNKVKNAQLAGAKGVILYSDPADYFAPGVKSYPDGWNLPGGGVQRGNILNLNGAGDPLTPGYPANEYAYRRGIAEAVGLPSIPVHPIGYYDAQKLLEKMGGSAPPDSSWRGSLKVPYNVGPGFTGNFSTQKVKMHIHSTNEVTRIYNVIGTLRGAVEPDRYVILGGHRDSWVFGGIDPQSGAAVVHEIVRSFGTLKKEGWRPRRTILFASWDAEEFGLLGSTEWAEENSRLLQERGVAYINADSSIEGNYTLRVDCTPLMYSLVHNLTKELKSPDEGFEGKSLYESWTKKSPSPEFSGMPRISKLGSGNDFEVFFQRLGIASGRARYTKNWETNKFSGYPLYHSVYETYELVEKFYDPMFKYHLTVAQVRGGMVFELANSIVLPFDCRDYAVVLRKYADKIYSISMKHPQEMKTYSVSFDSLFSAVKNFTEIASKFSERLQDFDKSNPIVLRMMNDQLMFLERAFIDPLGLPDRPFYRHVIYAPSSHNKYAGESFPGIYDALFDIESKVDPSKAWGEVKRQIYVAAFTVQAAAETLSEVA
T2 sequence (Q04609 44-750 limits assumed): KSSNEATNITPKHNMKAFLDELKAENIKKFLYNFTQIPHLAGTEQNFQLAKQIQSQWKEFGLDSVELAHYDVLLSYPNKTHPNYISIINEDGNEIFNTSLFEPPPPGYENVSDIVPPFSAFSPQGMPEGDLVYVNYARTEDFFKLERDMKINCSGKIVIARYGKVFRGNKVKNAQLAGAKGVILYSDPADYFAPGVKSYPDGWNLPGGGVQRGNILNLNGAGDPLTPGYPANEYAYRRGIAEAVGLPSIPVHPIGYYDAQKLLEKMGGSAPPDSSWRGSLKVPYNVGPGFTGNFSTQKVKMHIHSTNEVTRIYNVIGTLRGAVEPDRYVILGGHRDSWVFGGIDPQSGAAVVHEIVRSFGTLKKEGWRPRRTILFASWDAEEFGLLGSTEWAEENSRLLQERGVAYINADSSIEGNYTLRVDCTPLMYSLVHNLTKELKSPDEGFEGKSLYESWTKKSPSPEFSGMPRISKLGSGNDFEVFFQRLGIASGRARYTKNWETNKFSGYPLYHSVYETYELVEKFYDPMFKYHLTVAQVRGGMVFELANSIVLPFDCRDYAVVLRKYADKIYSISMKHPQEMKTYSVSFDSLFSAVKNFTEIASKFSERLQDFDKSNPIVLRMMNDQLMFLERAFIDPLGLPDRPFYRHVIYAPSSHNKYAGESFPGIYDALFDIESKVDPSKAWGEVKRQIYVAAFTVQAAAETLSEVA

IC50 [1, 3] [nM] | Kd ([2]; PSMA SPR assay, pKD category) [nM] | IC50 [1, 4] [nM] | Kd [2, 5] [nM] | Compound | also measured
< 200 | < 12.6 |  |  | CC(=O)N[C@H](C(=O)NC(C)(C)C(=O)N[C@@H](Cc1ccccc1)C(=O)N[C@H]1CSSC[C@@H](C(=O)N[C@H](C(=O)NCCCC(N)=O)C(C)(C)C)NC(=O)[C@H](CC(N)=O)NC(=O)C(C)(C)NC(=O)[C@H](CCCNC(=N)N)NC(=O)[C@H](CCCCN)NC1=O)[C@@H](C)O [PSM-0297, Ac-Thr-Aib-Pho-[Cys-Lys-Arg-Aib-Asn-Cys]-Tle-Gab-NH2] (Ac-T[Aib]FCKR[Aib]NC[Tle][GABA]-NH2; disulfide 4-9) | 
 |  | 1260 to 3160 | > 501 | CCCC[C@H](NC(=O)[C@@H]1CSSC[C@H](NC(=O)[C@H](Cc2ccccc2)NC(=O)[C@@H](C)NC(=O)[C@@H](NC(C)=O)[C@@H](C)O)C(=O)N[C@@H](CCCCN)C(=O)N[C@@H](CCCNC(=N)N)C(=O)N[C@@H](C)C(=O)N[C@@H](CC(N)=O)C(=O)N1)C(=O)N[C@H](C(=O)N[C@@H](CC(=O)O)C(N)=O)[C@@H](C)O [PSM-0537, Ac-Thr-ala-Phe-[Cys-Lys-Arg-Ala-Asn-Cys]-Nlc-Thr-Asp-NH2] | 
 |  | < 200 | < 12.6 | CC(=O)NC(C)(C)C(=O)N[C@@H](Cc1ccccc1)C(=O)N[C@H]1CSSC[C@@H](C(=O)N[C@H](C(=O)N[C@H](C(=O)N[C@@H](CC(=O)O)C(N)=O)[C@@H](C)O)C(C)(C)C)NC(=O)[C@H](CC(N)=O)NC(=O)[C@H](C)NC(=O)[C@H](CCCNC(=N)N)NC(=O)[C@H](CCCCN)NC1=O [PSM-0506, Ac-Aib-Pho-[Cys-Lys-Arg-Ala-Asn-Cys]-Tle-Thr-Asp-NH2] (Ac-[Aib]FCKRANC[Tle]TD-NH2; disulfide 3-8) | 
< 200 | 12.6 to 126 |  |  | CCCC[C@H](NC(=O)[C@@H]1CSSC[C@H](NC(=O)[C@H](Cc2ccccc2)NC(=O)[C@H](C)NC(=O)[C@@H](NC(C)=O)[C@@H](C)O)C(=O)N[C@@H](CCCCN)C(=O)N[C@@H](CCCNC(=N)N)C(=O)N[C@@H](C)C(=O)N[C@@H](CC(N)=O)C(=O)N1)C(=O)N[C@H](C(=O)N[C@@H](CC(=O)O)C(N)=O)[C@@H](C)O [PSM-0287, Ac-Thr-Ala-Phe-[Cys-Lys-Arg-Ala-Asn-Cys]-Nle-Thr-Asp-NH2] | 

The remaining lines, values behind:

Compound | IC50 [1, 3] [nM] | Kd ([2]; PSMA SPR assay, pKD category) [nM] | IC50 [1, 4] [nM] | Kd [2, 5] [nM] | also measured
CC(=O)N[C@H](C(=O)N[C@@H](C)C(=O)N(C)[C@@H](Cc1ccccc1)C(=O)N[C@H]1CSSC[C@@H](C(=O)N[C@H](C(=O)N[C@H](C(N)=O)[C@@H](C)O)C(C)(C)C)NC(=O)[C@H](CC(N)=O)NC(=O)C(C)(C)NC(=O)[C@H](CCCNC(=N)N)NC(=O)[C@H](CCCCN)NC1=O)[C@@H](C)O [PSM-0319, Ac-Thr-Ala-Nmf-[Cys-Lys-Arg-Aib-Asn-Cys]-Tle-Thr-NH2] (Ac-TA[NMeF]CKR[Aib]NC[Tle]T-NH2; disulfide 4-9) | < 200 | 12.6 to 126 |  |  | 
CC(C)(NC(=O)c1ccc(CNC(=O)CN2CCN(CC(=O)O)CCN(CC(=O)O)CCN(CC(=O)O)CC2)cc1)C(=O)N[C@@H](Cc1ccccc1)C(=O)N[C@H]1CSSC[C@@H](C(=O)N[C@H](C(=O)NCCN)C(C)(C)C)NC(=O)[C@H](CC(N)=O)NC(=O)C(C)(C)NC(=O)[C@H](CCCNC(=N)N)NC(=O)[C@H](CCCCN)NC1=O [PSM-0221, DOTA-Pamb-Aib-Phe-[Cys-Lys-Arg-Aib-Asn-Cys]-Tle-en] ({DOTA-4Amb}-[Aib]FCKR[Aib]NC[Tle]-Ethylenediamine; disulfide 3-8) |  |  |  |  | IC50 ([1]; FACS binding, C4-2 cells, competition with 50 nM PSM-0183, category): < 200 nM; Kd ([2]; SPR, single cycle kinetic, category): < 12.6 nM
CCCCNC(=O)N[C@H](C(=O)NC(C)(C)C(=O)N[C@@H](Cc1ccccc1)C(=O)N[C@H]1CSSC[C@@H](C(=O)N[C@H](C(=O)N[C@H](C(=O)N2CCC(CC(=O)N[C@H](CCCCNC(=O)CN3CCN(CC(=O)O)CCN(CC(=O)O)CCN(CC(=O)O)CC3)C(N)=O)CC2)[C@@H](C)O)C(C)(C)C)NC(=O)[C@H](CC(N)=O)NC(=O)C(C)(C)NC(=O)[C@H](CCCNC(N)=O)NC(=O)[C@H](CCCCN)NC1=O)[C@@H](C)O [PSM-0434, nBuCAyl-Thr-Aib-Phe-[Cys-Lys-Cit-Aib-Asn-Cys]-Tle-Thr-Cmp-lys(DOTA)-NH2] ({NHBu-CO}-T[Aib]FCK[Cit][Aib]NC[Tle]T[X1][dK](DOTA)-NH2; disulfide 4-9) |  |  | 200 to 1260 | 12.6 to 126 | 
CC(=O)N[C@H](C(=O)NC(C)(C)C(=O)N[C@@H](Cc1ccc(Cl)cc1)C(=O)N[C@H]1CSSC[C@@H](C(=O)N[C@H](C(N)=O)C(C)(C)C)NC(=O)[C@H](CC(N)=O)NC(=O)C(C)(C)NC(=O)[C@H](CCCNC(=N)N)NC(=O)[C@H](CCCCN)NC1=O)[C@@H](C)O [PSM-0367, Ac-Thr-Aib-Pcf-[Cys-Lys-Arg-Aib-Asn-Cys]-Tle-NH2] (Ac-T[Aib][Phe(4-Cl)]CKR[Aib]NC[Tle]-NH2; disulfide 4-9) |  |  | < 200 | < 12.6 | 
